# Data published in patent US8372421B2, “Inhibition of mitogen-activated protein kinases in cardiovascular disease” (New York University, priority 2004, dated 2013).
# Tests used:
# [1] = tested on: balloon-injured carotid arteries; settings: delivered pre- and post-operatively; effect relatively modest; cited from earlier work
# C reactive protein (CRP) = settings: graft immersed in UO126 (80 μM/L) prior to grafting; 24 hours post-operatively
# Protocol: (§1) Carotid artery bypass using reversed autologous external jugular vein (EJV) was performed on 29 purpose-bred mongrel dogs. Following skin incision, the EJV was exposed with a “no-touch” technique, and the side branches were clipped and divided. The dogs received heparin systemically (100 U/kg) and the ipsilateral common carotid artery was dissected free of the surrounding tissue. The EJV was ligated and excised. The lumen of the EJV was flushed with plasmalyte solution without distending the vein. A segment of the excised vein was removed and labeled (“control 1”). The EJV was reversed and grafted to the common carotid artery in an end-to-side fashion with 7-0 polypropylene suture, and the carotid artery was ligated and divided. See Saunders et al., J Thorac Cardiovasc Surg. 2004; 127:1276-1284.
# (§2) Inflammation is a key component of a vessel's response to injury.
# (§3) This experiment, which also used the canine model described in Example 1, investigated the levels of CRP and MPO cells in arterialized vein grafts immersed in a solution of UO126 (80 μM/L) (solubilized with DMSO and diluted in PBS) prior to grafting (i.e., pretreated grafts), arterialized vein grafts that were not pretreated, and contralateral ungrafted, un-pretreated external jugular veins.
# [2] = tested on: myeloperoxidase-positive (MPO) cells; settings: graft immersed in UO126 (80 μM/L) prior to grafting; 24 hours and 4 days post-operatively
# Protocol: as §1, §2, §3
# medial cell apoptosis = settings: EJV pretreated with 80 μM UO126; 1 day and 4 days post-anastomosis
# Protocol: as §1
# (§4) Each EJV was grafted to a carotid artery. Autologous femoral vein was excised but not treated or grafted.
# PCNA expression = settings: EJV pretreated with 80 μM UO126; 24 hours and 4 days post-grafting; relative to DMSO-pretreated EJVs
# Protocol: as §1, §4
# ERK-1/2 = settings: excised EJV immersed 20 minutes in 80 μmmoles/L UO126 before grafting; 3 hours post-grafting; relative to DMSO-pretreated EJVs
# Protocol: as §1, §4
# [3] = tested on: arterialized vein graft wall; settings: EJV immersed 20 minutes in 80 μmoles/L UO126 before grafting; AVG harvested at 28 days; 1% cholesterol chow; DMSO controls 358.2+/−190.3; p=0.012
# Protocol: The experimental procedure followed in the canine model described in Examples 1, 2, and 3 was applied to white New Zealand rabbits fed a 1% cholesterol chow. Prior to grafting, the excised autologous EJVs were fully immersed for 20 minutes at room temperature in about 5 ml of a solution containing 80 μmoles/L of UO126 (solubilized with DMSO and diluted in PBS) or vehicle (DMSO, 0.8%) alone in PBS. Each EJV was grafted to a carotid artery. Autologous femoral vein was excised but not treated or grafted. The veins were fixed in formaldehyde, and sections stained with hematoxylin/eosin were used for the following analysis.
# ERK-1/2 activation = settings: cited from earlier work
SMILES,ERK activation [1],medial cell proliferation [1],upregulation of CRP in arterialized vein grafts (C reactive protein (CRP)),levels of MPO cells associated with arterialized vein grafts [2],medial cell apoptosis (TUNEL) (medial cell apoptosis),PCNA expression (PCNA expression),ERK-1/2 activation (ratio of phosphorylated to total ERK-1/2) (ERK-1/2),vein wall thickness (intima+media) to luminal circumference ratio (mean value+/−SD) [3],potency as inhibitor of ERK-1/2 activation compared with PD098059 (ERK-1/2 activation)
"COc1cccc(-c2cc(=O)c3ccccc3o2)c1N [PD98059, 2-(2′-amino-3′-methoxyphenyl) oxanaphthalen-4-one]",inhibit,inhibit,,,,,,,
"N#CC(=C(N)Sc1ccccc1N)C(C#N)=C(N)Sc1ccccc1N [UO126, 1,4-diamino-2,3-dicyano-1,4-bis[2-aminophenylthio]butadiene]",,,does not affect,significantly downregulated,marked and sustained (up to 4 days) induction,markedly decreased,significantly reduced,288.8+/−109.5,more potent
